Entries after “also recorded” stand apart in the source; their conditions may differ. Where a name gives a salt, the structure may show the parent alone.
How the values were obtained:
HBV [1] = conditions: cited from earlier work
HIV = conditions: cited from earlier work
HBV [2] = experiment: Clinical response / resistance of HBV patients to nucleoside or nucleotide analog treatment; format: in vivo, human
Description: The present invention is predicated in part on the identification and isolation of nucleoside or nucleotide analog-resistant variants of HBV following treatment of patients with either ADV or LMV or ETV or more particularly ADV and LMV or TFV and LMV, or ETV and optionally one or more other nucleoside analogs or nucleotide analogs or other anti-HBV agents such as TFV, LdT, or FTC. […] Reference herein to “decreased” or “reduced” in relation to sensitivity to ADV and/or LMV and/or FTC and/or TFV and/or ETV includes and encompasses a complete or substantial resistance to the nucleoside or nucleotide analog or other anti-HBV agents as well as partial resistance and includes a replication rate or replication efficiency which is more than a wild-type in the presence of a nucleoside or nucleotide analog or other anti-HBV agents. In one aspect, this is conveniently measured by an increase in viral load during treatment, or alternatively, there is no substantial decrease in HBV DNA viral load from pre-treatment HBV DNA levels during treatment (i.e., non-response to treatment).
Hepatitis B surface antigen (HBsAg), hepatitis B e antigen (HBeAg), anti-HBe and hepatitis B core antigen (HBcAg) specific IgG and IgM were measured using commercially available immunoassays (Abbott Laboratories, North Chicago, Ill., USA). Hepatitis B viral DNA levels were measured using a capture hybridization assay according to the manufacturer's directions (Digene Hybrid Capture II, Digene Diagnostics Inc., Beltsville, Md.). The manufacturers stated cut-off for detecting HBV viremia in clinical specimens was 0.7×10^6 copies/ml or 2.5 pg/ml, [Hendricks et al, Am J Clin Pathol 104:537-46, 1995]. HBV DNA levels can also be quantitated using other commercial kits such as Cobas amplification HBV monitor kit (Roche). […]
The specific amplified products were purified using PCR purification columns from MO BIO Laboratories Inc (La Jolla, Calif.) and directly sequenced using Big Dye terminator Cycle sequencing Ready Reaction Kit (Perkin Elmer, Cetus Norwalk, Conn.). […]

HBV [3] = conditions: cited from earlier work; remark: listed apart in the source
[4] = ALT in patients during antiviral therapy; format: in vivo, human; conditions: Patient G, ADV therapy

With `Nc1ccn([C@@H]2C[C@@H](O)[C@H](CO)O2)c(=O)n1` [LdC, beta-L-2′-deoxycytidine] as the compound, how does the “activity against HBV” value (HBV [1]) read?
The value was “activity”.

Which “activity against HBV” value (HBV [1]) does the source give for `Nc1ncnc2c1ncn2C1CC(O)C(CO)O1` [LdA, beta-L-2′-deoxyadenosine] here?
The value was “activity”.

Which “activity against HIV” value (HIV) does the source give for `Nc1nc(=O)n([C@@H]2CS[C@H](CO)O2)cc1F` [FTC, (−)-β-L-2′-3′-dideoxy-5-fluoro-3′-thiacydidine] here?
Its value is “activity”.

And the “activity against HBV” value (HBV [1])?
Its value is “activity”.

Which “activity against HIV” value (HIV) does the source give for `CC(C)OC(=O)OCOP(=O)(CO[C@H](C)Cn1cnc2c(N)ncnc21)OCOC(=O)OC(C)C` [TFV, tenofovir disoproxil fumarate] here?
The value was “antiviral activity”.

What about the “activity against HBV” value (HBV [1]) of the same compound?
Its value is “antiviral activity”.

And the “inhibition of HBV replication” value (HBV [1])?
The value was “potent inhibitor”.

With `C=C1[C@H](CO)[C@@H](O)C[C@@H]1n1cnc2c(=O)[nH]c(N)nc21` [ETV, entecavir] as the compound, how does the response to treatment (HBV [2]; Patient H, sequential then combination treatment) read?
The response to treatment was “resistant”.

What about the response to treatment (HBV [2]; Patient J, previously treated with LMV, then ADV, then ETV) of the same compound?
The response to treatment was “did not respond”.

With `Cc1cn([C@@H]2C[C@@H](O)[C@H](CO)O2)c(=O)[nH]c1=O` [LdT, beta-Lthymidine] as the compound, how does the “activity against HBV” value (HBV [1]) read?
Its value is “activity”.

Which “clinical activity against both wild-type and lamivudine-resistant strains of HBV” value (HBV [3]; in vivo) does the source give for `CC(C)(C)C(=O)OCOP(=O)(COCCn1cnc2c(N)ncnc21)OCOC(=O)C(C)(C)C` [ADV, adefovir dipivoxil] here?
The value was “demonstrated clinical activity”.

And the “mean decrease in viremia” value (HBV [3]; phase II studies, 30 mg daily dose, over 12 weeks)?
Its value is 4 log10.

What about the ALT [4] of the same compound?
The ALT was 467 IU/ml.

What about the response to treatment (HBV [2]; human, in vivo) of the same compound?
Its response to treatment is “resistant; also recorded: did not respond”.

And the “inhibition of HBV replication” value (HBV [1])?
The value was “potent inhibitor”.
